Data taken from paper PMC8892206, “An RRx-001 Analogue With Potent Anti-NLRP3 Inflammasome Activity but Without High-Energy Nitro Functional Groups” (Frontiers in Pharmacology, 2022).

Target: T1, NLRP3 (Homo sapiens, UniProt Q96P20)
T1 construct: purified human His-GFP-NLRP3; NACHT domain mapped by DARTS
Assay: microscale thermophoresis with purified GFP-NLRP3; DARTS and C409A mutation support
Assay type: binding

T1 sequence (Q96P20 whole entry, the tested form may be a part): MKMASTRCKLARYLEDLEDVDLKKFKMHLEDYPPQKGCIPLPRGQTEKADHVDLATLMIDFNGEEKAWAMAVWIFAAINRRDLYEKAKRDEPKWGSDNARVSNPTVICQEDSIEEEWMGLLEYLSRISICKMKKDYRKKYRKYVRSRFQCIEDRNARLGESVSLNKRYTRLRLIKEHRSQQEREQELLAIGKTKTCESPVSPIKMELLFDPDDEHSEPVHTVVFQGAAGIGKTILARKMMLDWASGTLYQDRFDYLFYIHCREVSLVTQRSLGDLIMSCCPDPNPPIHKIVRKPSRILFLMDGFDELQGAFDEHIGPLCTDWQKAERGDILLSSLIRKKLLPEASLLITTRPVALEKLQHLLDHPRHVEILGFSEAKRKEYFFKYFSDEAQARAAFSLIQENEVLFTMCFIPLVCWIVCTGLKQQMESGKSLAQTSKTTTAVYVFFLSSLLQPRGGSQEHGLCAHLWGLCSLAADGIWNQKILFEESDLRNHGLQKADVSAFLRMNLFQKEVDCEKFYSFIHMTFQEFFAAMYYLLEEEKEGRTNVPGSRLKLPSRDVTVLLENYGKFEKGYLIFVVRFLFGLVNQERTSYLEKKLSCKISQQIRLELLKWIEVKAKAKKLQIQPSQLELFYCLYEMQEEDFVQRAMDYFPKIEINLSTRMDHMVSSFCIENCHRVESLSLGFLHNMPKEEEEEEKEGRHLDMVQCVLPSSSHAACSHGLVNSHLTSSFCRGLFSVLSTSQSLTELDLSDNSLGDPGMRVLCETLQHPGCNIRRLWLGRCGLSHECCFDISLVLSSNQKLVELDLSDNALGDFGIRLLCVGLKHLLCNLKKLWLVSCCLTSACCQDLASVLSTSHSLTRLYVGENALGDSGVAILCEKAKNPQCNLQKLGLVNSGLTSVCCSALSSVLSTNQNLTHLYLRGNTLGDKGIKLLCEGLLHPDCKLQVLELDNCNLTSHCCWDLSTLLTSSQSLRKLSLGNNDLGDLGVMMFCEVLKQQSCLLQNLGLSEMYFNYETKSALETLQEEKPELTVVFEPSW

O=C(CBr)NCc1ccc(C(F)(F)F)cc1 [149-01]
Kd: 48.2 nM
